This is an account of results in PubChem BioAssay (NCI).

What all share (assay): DTP human tumour cell line panel, 48 h
Experiment [1] relates to RXF 393 renal.
The test system of experiment [2] is TK-10 renal.
Experiment [3] deals with M14 melanoma.
In experiment [4] the test system is K-562 leukemia.
The test system of experiment [5] is CCRF-CEM leukemia.
The test system of experiment [6] is NCI-H522 lung.
For experiment [7], the system named is MDA-MB-435.
The test system of experiment [8] is SF-539 CNS.
Experiment [9] relates to SK-OV-3 ovarian.
Experiment [10] has as its system NCI/ADR-RES ovarian.

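Grown in 96-well plates, cells were treated for 48 hours with each compound at five concentrations. Insufficient inhibition: endpoint recorded as highest concentration tested. At the GI50, growth is halved. TGI: total growth inhibition.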

Usually GI50 stands for the concentration that inhibits growth by half. For orientation: TGI means the concentration at which net growth stops. Read a low TGI as more potent growth arrest. As for `CCc1nc(-n2c(-c3ccccc3)nc3ccccc3c2=O)nc(N)c1-c1ccc(Cl)cc1`, the GI50 in experiment [1] is more than 100 µM; in experiment [2], 23.1 µM; in experiment [3] it was 6.22 µM; in experiment [4], 3.06 µM; in experiment [5], 9.94 µM; in experiment [6], 52.2 µM. Further, the GI50 in experiment [7] is 3.48 µM; in [8] it was 23.7 µM. The total growth inhibition concentration (TGI) in [1], in experiment [2], in experiment [3], in [4], in experiment [5] and in experiment [6] was more than 100 µM throughout. The TGI in experiment [7] and in [8] was more than 100 µM each time.

As for `CC(=O)O[C@H]1C=CC23OC(=O)[C@]1(C)[C@H]2[C@H](C(=O)O)C12CC(=O)[C@@](CO)(CC[C@H]13)C2`, the TGI in experiment [9], in [1], in experiment [2], in [3], in experiment [4] and in experiment [5] was more than 100 µM in each case. Further, the TGI in [6] and in experiment [8] was more than 100 µM throughout.

With `O=C(/C(=C/c1ccccc1)c1ccccc1)N1c2ccccc2CC1c1c[nH]c2ccccc12` (configuration not stated), the concentration for total growth inhibition (TGI) in experiment [9], in experiment [1], in experiment [2], in [3], in experiment [4] and in experiment [5] was more than 100 µM in each case. In addition, the TGI in experiment [6] and in [8] was more than 100 µM in each case.

Turning to `C#CCN(C)C(=O)N(CC#C)N=O`, the TGI in experiment [9], in experiment [1], in experiment [2], in experiment [3], in experiment [4] and in experiment [5] was more than 100 µM in each case. For the same molecule, the TGI in [6] and in experiment [8] was more than 100 µM in each case.

For `COC(=O)C1CC(C(=O)OC)c2nc3cc(C)c(C)cc3nc21` (configuration not stated), the TGI in experiment [9], in [2], in experiment [3], in experiment [4], in experiment [5] and in experiment [6] was more than 100 µM throughout. The TGI in [8] was more than 100 µM.

Regarding `Cc1nnc(-c2ccc(-c3nc4ccccc4o3)cc2)o1`, the GI50 in experiment [9] was 29.7 µM; in [2], more than 100 µM; in experiment [3], more than 100 µM; in experiment [4], 29.5 µM; in experiment [10], more than 100 µM; in [6], more than 100 µM. For the same molecule, the GI50 in experiment [7] and in [8] was more than 100 µM throughout. The TGI in [9] was 77.7 µM; in experiment [2], more than 100 µM; in experiment [3], more than 100 µM; in experiment [4], more than 100 µM; in experiment [10] it was more than 100 µM; in [6], more than 100 µM. For the same molecule, the TGI in experiment [7] and in experiment [8] was more than 100 µM throughout.

Regarding `C[N+](C)(C)CC1CCCC/C1=N\O` (configuration not stated), the TGI in [9], in experiment [1], in [2], in experiment [3], in [4] and in [5] was more than 100 µM in each case. The TGI in experiment [6] and in [8] was more than 100 µM each time.

Take `C[n+]1c(N)n(C(=O)OCc2ccccc2)c(=O)c2c1ncn2C(=O)OCc1ccccc1`: the TGI in experiment [9], in experiment [2], in experiment [3], in experiment [4], in [5] and in experiment [6] was more than 100 µM in each case.

For `Cn1ccnc1C[N-]Cc1nccn1C.O=[N+]([O-])[O-].O=[N+]([O-])[O-].[Cu+2]`, the GI50 in experiment [9], in [1], in experiment [2], in experiment [3], in experiment [4] and in experiment [5] was more than 100 µM in each case. Also, the GI50 in [6] and in experiment [8] was more than 100 µM throughout. For the same molecule, the TGI in experiment [9], in experiment [1], in experiment [2], in experiment [3], in [4] and in [5] was more than 100 µM each time. Moreover, the total growth inhibition concentration (TGI) in experiment [6] and in [8] was more than 100 µM each time.

`CN(C)CCNc1nc(-c2cccs2)cc(-c2cccs2)n1`: the TGI in experiment [1] came to 28.6 µM; in experiment [2] it was 29 µM; in [3], 27 µM; in [4] it was 36.5 µM; in [5], 24.1 µM; in [8] it was 28.5 µM.

Take `C[N+](C)([O-])CCCNc1ccnc2cccc([N+](=O)[O-])c12`: the total growth inhibition concentration (TGI) was more than 100 µM in experiment [9]; 79.1 µM in [1]; more than 100 µM in experiment [2]; more than 100 µM in experiment [3]; more than 100 µM in experiment [4]; more than 100 µM in experiment [5]. For the same molecule, the TGI in experiment [6] is 28 µM; in experiment [7], more than 100 µM; in experiment [8], 53.1 µM.

Take `N#Cc1cccc(OCc2ccccc2COc2cccc(C#N)c2)c1`: the GI50 in [9] is 35.7 µM; in experiment [2] it was 11.8 µM; in experiment [3], 43.9 µM; in experiment [4] it was 64.5 µM; in experiment [10], 50.1 µM; in experiment [6], 98.1 µM. For the same molecule, the GI50 in [7] was 25.4 µM; in experiment [8], 18.8 µM. Further, the TGI was more than 100 µM in experiment [9]; 29.5 µM in experiment [2]; more than 100 µM in experiment [3]; more than 100 µM in [4]; more than 100 µM in [10]; more than 100 µM in [6]. For the same molecule, the total growth inhibition concentration (TGI) in experiment [7] was more than 100 µM; in [8], 35.5 µM.

For the molecule `COc1ccc(C2=NOP(c3ccccc3)(c3ccccc3)(c3ccccc3)C2)cc1`, the TGI in experiment [9] was more than 100 µM; in experiment [1] it was 97.4 µM; in experiment [2] it was more than 100 µM; in [3], 41.9 µM; in experiment [4], 31.4 µM; in [5], 39.6 µM. Further, the TGI in [6] is 25.1 µM; in experiment [8], more than 100 µM.
